One assay deals with Hexokinase (Trypanosoma brucei, UniProt Q38C41). The assay can be described thus: Confirmation assay for inhibitors of Trypanosoma brucei hexokinase 1-Analogue-first series. [Related pubchem assays (depositor defined):AID1430, AID1632, AID2516, AID2560, AID2579, AID2600, AID449725, AID492951]. In kind it is functional.
Assay [1] concerns the target T1, Cannabinoid receptor 2 (Homo sapiens, UniProt P34972). The experiment in a line: SAR analysis of antagonists of the Cannabinoid Receptor 2 using an Image-Based Assay - Set 2. [Related pubchem assays (depositor defined):AID1961, AID1965]. In kind it is functional.
For assay [2], the target named is T1, Cannabinoid receptor 2. The experiment in a line: SAR analysis of agonists of the Cannabinoid Receptor 2 using an Image-Based Assay - Set 2. [Related pubchem assays (depositor defined):AID1961, AID1965]. In kind it is functional.
Assay [3] has as its target T2, Cannabinoid receptor 1 (Homo sapiens, UniProt P21554). The experiment in a line: SAR analysis of antagonists of the Cannabinoid Receptor 1 using an Image-Based Assay - Set 3. [Related pubchem assays (depositor defined):AID1961, AID1965]. The assay is classed as functional.
In assay [4] the target is T3, G-protein coupled receptor 35 (Homo sapiens, UniProt Q9HC97). The assay can be described thus: SAR analysis of Antagonists of the GPR35 Receptor using an Image-Based Assay - Set 4. [Related pubchem assays (depositor defined):[…]]. In kind it is functional.
In assay [5] the target is T3, G-protein coupled receptor 35. The experiment in a line: SAR analysis of Agonists of the GPR35 Receptor using an Image-Based Assay - Set 3. [Related pubchem assays (depositor defined):AID1961, AID1965]. In kind it is functional.
Assay [6] deals with T2, Cannabinoid receptor 1. The assay can be described thus: SAR analysis of agonists of the Cannabinoid Receptor 1 using an Image-Based Assay - Set 3. [Related pubchem assays (depositor defined):AID1961, AID1965]. The assay is classed as functional.
Assay [7] addresses G-protein coupled receptor 55 (Homo sapiens, UniProt Q9Y2T6). The experiment in a line: SAR analysis of selective Agonists of GPR55 using an Image-Based Assay - Set 2. [Related pubchem assays (depositor defined):AID1961, AID1965]. In kind it is functional.
The next assay deals with X-box-binding protein 1 (Homo sapiens, UniProt P17861). In kind it is functional, Cricetulus griseus.
A short description of assay [8]: cytotoxicity in BJeH fibroblasts, dose response, counter-screen for Ras selective lethality project, BJeH cells, dry powder (AID 493054). The assay is classed as functional, cell-based. On the technique in general: A counterscreen serves to expose hits that act by an unwanted route or on another target.
Assay [9] in a line: viability loss in HRASV12 DRD fibroblasts, dose response, cell-based, DRD BJ fibroblasts, dry powder (AID 493049). In kind it is functional.
Assay [10] can be described thus: cytotoxicity in BJeHLT fibroblasts, dose response, counter-screen for Ras selective lethality project, BJeHLT cells, dry powder (AID 493052). The assay is classed as functional, cell-based. Conditions: Homo sapiens.
Assay [11] can be described thus: viability loss in BJeLR (HRASV12) cells, primary screen, Ras selective lethality project, cell-based, Alamar Blue, dry powder (AID 493045). The assay is classed as functional. Background: Resazurin is reduced to fluorescent resorufin, in cell work by metabolically active cells.
Assay [12] deals with DNA dC->dU-editing enzyme APOBEC-3G (Homo sapiens, UniProt Q9HC16). In kind it is functional.
Assay [13] addresses DNA dC->dU-editing enzyme APOBEC-3A (Homo sapiens, UniProt P31941). The experiment in a line: Dose Response confirmation of small molecule APOBEC3A DNA Deaminase Inhibitors via a fluorescence-based single-stranded DNA deaminase assay. [Related pubchem assays (depositor defined):AID493011, AID493024]. The assay is classed as functional.

We go through 6 molecules from ChEMBL document CHEMBL1201862, “PubChem BioAssay data set” (2004).

The term IC50 denotes the concentration at which inhibition is half-maximal. By EC50 is commonly meant the concentration needed to bring the measured effect to its halfway point. As a reminder, the AC50 is the concentration at which the activity in the assay is half-maximal.

SMILES strings stand for the structures. Active and inactive are the calls of the source.
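Throughout, for Absolute IC50 (XBP1): confirmatory dose-response counter-screen serving a CHOP assay.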

T2 sequence (P21554 whole entry): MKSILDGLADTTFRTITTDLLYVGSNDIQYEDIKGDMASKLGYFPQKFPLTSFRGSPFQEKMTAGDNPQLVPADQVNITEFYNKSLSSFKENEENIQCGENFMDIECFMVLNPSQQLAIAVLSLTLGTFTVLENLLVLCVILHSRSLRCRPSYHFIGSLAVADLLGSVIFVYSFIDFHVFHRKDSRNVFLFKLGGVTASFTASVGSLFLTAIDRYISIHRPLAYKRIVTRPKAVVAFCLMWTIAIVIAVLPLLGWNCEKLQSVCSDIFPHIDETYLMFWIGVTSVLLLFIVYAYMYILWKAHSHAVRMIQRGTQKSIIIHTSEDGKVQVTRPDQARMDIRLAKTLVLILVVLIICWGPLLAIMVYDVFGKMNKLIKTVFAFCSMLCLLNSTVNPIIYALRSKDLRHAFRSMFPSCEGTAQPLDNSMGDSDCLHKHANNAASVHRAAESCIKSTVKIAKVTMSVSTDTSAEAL
Chain of Hexokinase (Q38C41 whole entry): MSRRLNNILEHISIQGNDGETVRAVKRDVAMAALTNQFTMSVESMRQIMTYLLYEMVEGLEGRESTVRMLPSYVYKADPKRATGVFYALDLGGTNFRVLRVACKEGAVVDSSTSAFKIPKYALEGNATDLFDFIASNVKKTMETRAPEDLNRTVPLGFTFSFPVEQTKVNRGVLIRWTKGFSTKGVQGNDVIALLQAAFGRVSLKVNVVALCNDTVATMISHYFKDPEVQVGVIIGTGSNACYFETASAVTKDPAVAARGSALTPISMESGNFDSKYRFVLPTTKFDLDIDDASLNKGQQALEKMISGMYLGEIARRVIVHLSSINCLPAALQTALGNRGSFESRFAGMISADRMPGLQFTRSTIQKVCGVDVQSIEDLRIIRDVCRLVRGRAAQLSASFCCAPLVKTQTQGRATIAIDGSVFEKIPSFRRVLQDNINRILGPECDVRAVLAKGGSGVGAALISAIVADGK
T3 sequence (Q9HC97 whole entry): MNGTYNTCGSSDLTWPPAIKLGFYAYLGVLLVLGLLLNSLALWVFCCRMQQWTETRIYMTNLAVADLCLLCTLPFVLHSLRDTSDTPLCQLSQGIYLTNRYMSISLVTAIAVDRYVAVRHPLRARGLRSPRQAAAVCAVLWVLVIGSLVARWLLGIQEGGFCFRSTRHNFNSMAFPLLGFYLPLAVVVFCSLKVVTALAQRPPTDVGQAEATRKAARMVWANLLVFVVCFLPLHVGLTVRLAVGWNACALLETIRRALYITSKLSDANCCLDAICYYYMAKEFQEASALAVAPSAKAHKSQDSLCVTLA
T1 sequence (P34972 whole entry): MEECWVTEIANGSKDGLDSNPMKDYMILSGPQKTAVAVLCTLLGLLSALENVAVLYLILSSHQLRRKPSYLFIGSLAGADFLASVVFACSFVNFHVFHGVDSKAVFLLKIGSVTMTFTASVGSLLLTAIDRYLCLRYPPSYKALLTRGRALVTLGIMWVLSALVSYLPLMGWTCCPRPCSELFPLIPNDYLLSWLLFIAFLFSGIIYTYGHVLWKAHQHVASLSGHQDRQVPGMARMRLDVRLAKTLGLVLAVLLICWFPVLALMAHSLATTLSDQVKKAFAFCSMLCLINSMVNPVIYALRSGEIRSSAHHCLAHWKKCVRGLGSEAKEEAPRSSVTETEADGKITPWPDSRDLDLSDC
Chain of DNA dC->dU-editing enzyme APOBEC-3A (P31941 whole entry): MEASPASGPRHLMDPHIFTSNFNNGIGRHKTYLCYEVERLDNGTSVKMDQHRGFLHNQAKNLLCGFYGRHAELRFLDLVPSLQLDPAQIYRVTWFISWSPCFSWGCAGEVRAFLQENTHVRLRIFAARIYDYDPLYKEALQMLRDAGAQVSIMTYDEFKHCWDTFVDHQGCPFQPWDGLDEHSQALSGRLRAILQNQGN
Chain of DNA dC->dU-editing enzyme APOBEC-3G (Q9HC16 whole entry): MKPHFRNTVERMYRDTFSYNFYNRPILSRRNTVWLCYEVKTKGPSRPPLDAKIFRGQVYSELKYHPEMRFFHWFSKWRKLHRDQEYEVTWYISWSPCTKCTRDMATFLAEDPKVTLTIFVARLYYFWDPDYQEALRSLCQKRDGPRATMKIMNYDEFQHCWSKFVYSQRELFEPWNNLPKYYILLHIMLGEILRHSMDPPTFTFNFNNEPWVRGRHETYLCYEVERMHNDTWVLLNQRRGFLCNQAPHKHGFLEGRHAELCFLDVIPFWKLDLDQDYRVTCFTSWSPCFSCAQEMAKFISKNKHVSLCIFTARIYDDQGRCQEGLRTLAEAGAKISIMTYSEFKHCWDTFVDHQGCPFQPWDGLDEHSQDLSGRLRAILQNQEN
Chain of X-box-binding protein 1 (P17861 whole entry): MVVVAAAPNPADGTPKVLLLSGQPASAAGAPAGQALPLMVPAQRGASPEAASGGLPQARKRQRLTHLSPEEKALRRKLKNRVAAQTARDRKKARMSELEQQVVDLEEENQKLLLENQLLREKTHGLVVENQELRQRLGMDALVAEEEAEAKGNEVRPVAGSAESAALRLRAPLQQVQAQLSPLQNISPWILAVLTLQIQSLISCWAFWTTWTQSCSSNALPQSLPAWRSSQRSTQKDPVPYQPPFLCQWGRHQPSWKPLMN
Chain of G-protein coupled receptor 55 (Q9Y2T6 whole entry): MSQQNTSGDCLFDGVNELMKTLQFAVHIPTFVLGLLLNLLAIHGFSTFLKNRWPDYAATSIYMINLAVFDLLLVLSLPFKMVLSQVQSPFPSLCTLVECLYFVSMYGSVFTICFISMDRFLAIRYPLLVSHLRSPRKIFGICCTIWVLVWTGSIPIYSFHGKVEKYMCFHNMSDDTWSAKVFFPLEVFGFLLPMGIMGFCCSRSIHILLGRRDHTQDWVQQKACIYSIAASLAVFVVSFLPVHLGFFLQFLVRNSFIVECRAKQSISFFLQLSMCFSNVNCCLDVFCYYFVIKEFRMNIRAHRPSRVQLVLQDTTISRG

Take `CC(C)(C)c1ccc(C(=O)Nc2cc(Br)ccc2C(=O)O)cc1`: the IC50 at Hexokinase was 2.39 µM (active).

As for `COc1ccc2c(c1)cc(C)c1nnc(SCC(=O)Nc3nc(C)cs3)n12`, the IC50 (at Cannabinoid receptor 2 [1]; on Cannabinoid receptor 1 [3]; in assay [4]) was > 32 µM (inactive) in each case. Moreover, the EC50 (at Cannabinoid receptor 2 [2]; in assay [5]; on Cannabinoid receptor 1 [6]; in assay [7]) was > 32 µM (inactive) in each case.

As for `N#Cc1ccc(Oc2ccc3c(c2)B(O)OC3)cc1`, at Hexokinase, the IC50 is > 25 µM (inactive).

In the case of `CCCOc1ccc(N2C(=O)CC(SC(=NC)Nc3ccc(F)cc3)C2=O)cc1` (stereo unspecified), the “Absolute IC50 (XBP1)” value at X-box-binding protein 1 turned out to be 10 µM.

Consider `COc1ccc(N(C(=O)CCl)C(C)(C)C(=O)NCCc2ccccc2)cc1Cl`, for which the AC50 is 0.254 µM (active) in [8], 0.06 µM (active) in assay [9], 0.127 µM (active) in [10] and 0.058 µM (active) in [11].

Take `CCN1CCN(c2ccc(S(=O)(=O)N3CCCCC3)cc2NC(=O)c2ccc(OC(F)F)cc2)CC1`: the half-inhibitory concentration (IC50) in [12] was 9.05 µM (active); in assay [13] it was 10.9 µM (active).
